Laboratory results reported in US9266872B2, “2-hydroxyarylamide derivative or pharmaceutically acceptable salt thereof, preparation method thereof, and pharmaceutical composition for preventing or treating cancer containing same as active ingredient” (KOREA RESEARCH INSTITUTE OF BIOSCIENCE AND BIOTECHNOLOGY, priority 2011, dated 2016).

Biological target: T1, TMPRSS4 serine protease (Homo sapiens, UniProt Q9NRS4)
T1 construct: TMPRSS4 serine protease domain (205th Val˜437th Leu) was cloned in pET21b/NdeI-XhoI; inferred from pET21b XhoI cloning and Ni-NTA purification) (C); made in house; host or cells: E. coli BL21 (DE3)
T1 sequence (Q9NRS4 205-437): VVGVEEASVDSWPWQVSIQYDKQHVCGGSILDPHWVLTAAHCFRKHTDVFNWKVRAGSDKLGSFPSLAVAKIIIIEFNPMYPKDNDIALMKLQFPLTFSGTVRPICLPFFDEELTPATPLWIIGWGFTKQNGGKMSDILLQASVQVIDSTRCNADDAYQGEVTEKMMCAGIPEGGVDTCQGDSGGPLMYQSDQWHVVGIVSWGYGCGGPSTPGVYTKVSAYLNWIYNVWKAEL
Assay: Inhibitory effect on TMPRSS4 serine protease activity using peptide substrate
Type: biochemical
Details: for Intracellular protease activity Inhibition % 10 uM / inhibition at 10 µM: 10 uM compound; for Intracellular protease activity Inhibition % 10 uM / inhibition at 10 µM / inhibition at 30 µM / inhibition at 100 µM: kallikrein peptide substrate 100 μM, DMSO negative control; for inhibition at 10 µM: read-out: Intracellular protease activity Inhibition % 10 uM; for inhibition at 30 µM: 30 uM compound, read-out: Intracellular protease activity Inhibition % 30 uM; for inhibition at 100 µM: 100 uM compound, read-out: Intracellular protease activity Inhibition % 100 uM
Procedure: TMPRSS4 serine protease domain (205th Val˜437th Leu) was cloned in pET21b/NdeI-XhoI, which was introduced in E. coli BL21 (DE3). At this time, FlagX2-enterokinase cleavage site ([…]; total 15 amino acids) was inserted in N-terminal of TMPRSS4 serine protease domain as shown in FIG. 1. The forward and reverse primers for PCR used for the cloning were presented by SEQ. ID. NO: 1 and NO: 2.
The cells were cultured in 10 ml of LB containing ampicillin at 37° C. overnight. IL of LB+ampicillin was added thereto, followed by further culture until OD reached 0.6˜0.8. 0.1 mM IPTG was added thereto, followed by further culture for 16 hours. Cell pellet was obtained, purified by Ni-NTA (Qiagen), and dialyzed. TMPRSS4 serine protease (pro-form) labeled with 2 mg of 2Xflag-enterokinase cleavage site was conjugated to Ni-NTA resin (4°, overnight). Enterokinase (NEB) was treated thereto at the concentration of 0.0002%/w/w at room temperature for 5 hours. The sample was washed, eluted with 50 mM imidazole in 20 mM of sodium phosphate buffer, and then dialyzed.
The protein activity was evaluated by measuring fluorescence shown during hydrolysis of the peptide. […] Reaction was induced after adding 100 μM of the peptide substrate into reaction buffer (50 mM Tris-HCl (pH 8.0), 10 mM CaCl2, 1 μM ZnCl2). Then, fluorescence was measured at 5 minutes interval (excitation 385 nm, emission 455 nm).
Then, fluorescence (excitation 385 nm/emission 455 nm) was measured at 5 minutes interval for 150 minutes. […] Dimethylsulfoxide (DMSO) was used as the negative control.

| SMILES | Intracellular protease activity Inhibition % 10 uM | inhibition at 10 µM | inhibition at 30 µM | inhibition at 100 µM | TMPRSS4 serine protease active form activity (hydrolysis of peptide substrate) (1 mM, trypsin and kallikrein peptide substrates) |
| --- | --- | --- | --- | --- | --- |
| Cc1cnc(NC(=O)c2cc(Cl)ccc2O)s1 [Example 71, 5-chloro-2-hydroxy-N-(5-methylthiazole-2-yl)benzamide] | 66% | 51 to 100% | – | – | – |
| O=C(Nc1cc(C(F)(F)F)cc(C(F)(F)F)c1)c1cc(Cl)cc(Cl)c1O [Example 2, N-(3,5-bis(trifluoromethyl)phenyl)3,5-dichloro-2-hydroxybenzamide] | – | – | 100% | – | – |
| N#Cc1ccc(O)c(C(=O)Nc2cc(C(F)(F)F)cc(C(F)(F)F)c2)c1 [Example 56, N-(3,5-bis(trifluoromethyl)phenyl)-5-cyano-2-hydroxybenzamide] | – | 15% | 53% | – | – |
| O=C(Nc1cc(C(F)(F)F)cc(C(F)(F)F)c1)c1ccc(C(F)(F)F)cc1O [Example 13, N-(3,5-bis(trifluoromethyl)phenyl)-4-(trifluoromethyl)-2-hydroxybenzamide] | – | 32% | 79% | – | – |
| O=C(Nc1cc(C(F)(F)F)cc(C(F)(F)F)c1)c1cc(Cl)ccc1OCc1ccccc1 [Example 58, 2-benzyloxy-N-(3,5-bis-trifluoromethyl-phenyl)-5-chlorobenzamide] | – | 0% | 6% | – | – |
| O=C(Nc1cc(C(F)(F)F)cc(C(F)(F)F)c1)c1cccc(Cl)c1O [Example 26, N-(3,5-bis-trifluoromethyl-phenyl)-3-chloro-2-hydroxy-benzamide] | 61% | 51 to 100% | 93% | – | – |
| O=C(Nc1cc(C(F)(F)F)cc(C(F)(F)F)c1)c1cnc2ccccc2c1O [Example 68, N-(3,5-bis(trifluoromethyl)phenyl)-4-hydroxyquinoline-3-carboxamide] | – | 0% | 0% | – | – |
| O=C(Nc1cc(C(F)(F)F)cc(C(F)(F)F)c1)c1cc(Cl)cnc1O [Example 67, N-(3,5-bis(trifluoromethyl)phenyl)-5-chloro-2-hydroxynicotineamide] | – | 0% | 19% | – | – |
| O=C(Nc1cc(C(F)(F)F)cc(C(F)(F)F)c1)c1ccc(Cl)cc1O [Example 54, N-(3,5-bis(trifluoromethyl)phenyl)-4-chloro-2-hydroxybenzamide] | – | 29% | 74% | – | – |
| O=C(Nc1cc(C(F)(F)F)cc(C(F)(F)F)c1Cl)c1cc(Cl)ccc1O [Example 29, 5-chloro-N-(2-chloro-3,5-bis-trifluoromethyl-phenyl)-2-hydroxy-benzamide] | – | 43% | 100% | – | – |
| Cc1ccc(O)c(C(=O)Nc2cc(C(F)(F)F)cc(C(F)(F)F)c2)c1 [Example 3, N-(3,5-bis(trifluoromethyl)phenyl)-2-hydroxy-5-methylbenzamide] | – | 0% | 64% | – | – |
| Cc1nc(NC(=O)c2cc(Cl)ccc2O)sc1C [Example 72, 5-chloro-N-(4,5-dimethylthiazol-2-yl)-2-hydroxybenzamide] | – | 16% | – | – | – |
| O=C(NCc1cc(C(F)(F)F)cc(C(F)(F)F)c1)c1cc(Cl)ccc1O [Example 24, N-(3,5-bis-trifluoromethyl-benzyl)-5-chloro-2-hydroxy-benzamide] | – | 36% | 63% | – | – |
| Nc1ccc(O)c(C(=O)Nc2cc(C(F)(F)F)cc(C(F)(F)F)c2)c1 [Example 31, 5-amino-N-(3,5-bis(trifluoromethyl)phenyl)-2-hydroxybenzamide] | – | 3% | 30% | – | – |
| Cc1nc(NC(=O)c2cc(Cl)ccc2O)n[nH]1 [Example 75, 5-chloro-2-hydroxy-N-(5-methyl-1H-1,2,4-triazol-3-yl)benzamide] | 58% | 51 to 100% | – | – | – |
| CC(=O)Oc1ccc(Cl)cc1C(=O)Nc1cc(C(F)(F)F)cc(C(F)(F)F)c1 [Example 57, 2-(3,5-bis(trifluoromethyl)phenylcarbamoyl)-4-chlorophenylacetate] | – | 0% | 4% | – | – |
| O=C(Nc1cc(C(F)(F)F)cc(C(F)(F)F)c1)c1cc(Br)ccc1O [Example 9, N-(3,5-bis(trifluoromethyl)phenyl)-5-bromo-2-hydroxybenzamide] | 54% | 51 to 100% | 84% | – | – |
| O=C(Nc1cc(C(F)(F)F)cc(C(F)(F)F)c1)c1cc(F)ccc1O [Example 14, N-(3,5-bis(trifluoromethyl)phenyl)-5-fluoro-2-hydroxybenzamide] | – | 0% | 55% | – | – |

| SMILES | Intracellular protease activity Inhibition % 10 uM | inhibition at 10 µM | inhibition at 30 µM | inhibition at 100 µM | TMPRSS4 serine protease active form activity (hydrolysis of peptide substrate) (1 mM, trypsin and kallikrein peptide substrates) |
| --- | --- | --- | --- | --- | --- |
| O=C(Nc1nc(-c2cccnc2)cs1)c1cc(Cl)ccc1O [Example 76, 5-chloro-2-hydroxy-N-(4-(pyridin-3-yl)thiazol-2-yl)benzamide] | – | 30% | – | – | – |
| COc1ccc(O)c(C(=O)Nc2cc(C(F)(F)F)cc(C(F)(F)F)c2)c1 [Example 7, N-(3,5-bis(trifluoromethyl)phenyl)-2-hydroxy-5-methoxybenzamide] | – | 0% | 53% | – | – |
| N#Cc1ccc(NC(=O)c2cc(Cl)ccc2O)cc1 [Example 12, 5-chloro-N-(4-cyanophenyl)-2-hydroxybenzamide] | – | – | 29% | 69% | – |
| O=C(Nc1ncccn1)c1cc(Cl)ccc1O [Example 49, 5-chloro-2-hydroxy-N-(pyrimidine-2-yl)benzamide] | – | – | 0% | 2% | – |
| Cc1cc(C)cc(NC(=O)c2cc(Cl)ccc2O)c1 [Example 60, 5-chloro-N-(3,5-dimethylphenyl)-2-hydroxybenzamide] | – | – | 44% | 56% | – |
| O=C(Nc1cc(C(F)(F)F)ccc1Cl)c1cc(Cl)ccc1O [Example 23, 5-chloro-N-(2-chloro-5-(trifluoromethyl)phenyl)-2-hydroxybenzamide] | 64% | 51 to 100% | 99% | 100% | – |
| O=C(Nc1cc(C(F)(F)F)ccc1C(F)(F)F)c1cc(Cl)ccc1O [Example 18, N-(2,5-bis(trifluoromethyl)phenyl)-5-chloro-2-hydroxybenzamine] | – | 46% | 54% | – | – |
| NCCc1ccc(S(=O)(=O)F)cc1 [AEBSF, reference compound] | – | – | – | – | inhibited |
| O=C(Nc1ccc(Cl)cn1)c1cc(Cl)ccc1O [Example 42, 5-chloro-N-(5-chloropyridine-2-yl)-2-hydroxybenzamide] | – | – | 14% | 55% | – |
| O=C(Nc1ccnc(Cl)c1)c1cc(Cl)ccc1O [Example 47, 5-chloro-N-(2-chloropyridine-4-yl)-2-hydroxybenzamide] | – | – | 35% | 21% | – |
| Cc1cc(Cl)cc(C(=O)Nc2cc(C(F)(F)F)cc(C(F)(F)F)c2)c1O [Example 34, N-(3,5-bis(trifluoromethyl)phenyl)-5-chloro-2-hydroxy-3-methylbenzamide] | – | 33% | 78% | – | – |
| O=C(Nc1c(F)c(F)nc(F)c1F)c1cc(Cl)ccc1O [Example 43, 5-chloro-2-hydroxy-N-(perfluoropyridine-4-yl)benzamide] | – | – | 31% | 51% | – |
| O=C(Nc1ccc(Cl)nc1)c1cc(Cl)ccc1O [Example 45, 5-chloro-N-(6-chloropyridine-3-yl)-2-hydroxybenzamide] | – | – | 6% | 39% | – |
| NC(=O)c1ccc(O)c(C(=O)Nc2cc(C(F)(F)F)cc(C(F)(F)F)c2)c1 [Example 38, N^3-(3,5-bis-trifluoromethyl-phenyl)-4-hydroxy-isophthalamide] | – | 0% | 21% | – | – |
| O=C(Nc1ccc(C(F)(F)F)c(C(F)(F)F)c1)c1cc(Cl)ccc1O [Example 62, N-(3,4-bis(trifluoromethyl)phenyl)-5-chloro-2-hydroxybenzamide] | – | 37% | 59% | – | – |
| O=C(Nc1cc(Cl)c(Cl)c(Cl)c1)c1cc(Cl)ccc1O [Example 66, 5-chloro-2-hydroxy-N-(3,4,5-trichloro-phenyl)benzamide] | – | 6% | 23% | – | – |
| O=C(Nc1nc2c(s1)CCCC2)c1cc(Cl)ccc1O [Example 70, 5-chloro-2-hydroxy-N-(4,5,6,7-tetrahydrobenzo[d]thiazol-2-yl)benzamide] | 77% | – | – | – | – |
